Results: ChEMBL document CHEMBL1126980, “New, potent anthelmintic and acaricidal agents: 4-deoxy-4-thio-substituted avermectin derivatives” (Bioorg Med Chem Lett, 1993)
In brackets after ≈: the same amount, converted by molar mass.

Experiments:
Artemia salina = assay: Tested in vitro for the biological efficacy using Artemia salina (brine shrimp) immobilization assay; format: functional
Caenorhabditis elegans = assay: Tested in vitro for the biological efficacy using Caenorhabditis elegans binding assay; format: functional, organism-based
Ovis aries [1] = assay: Tested for the anthelmintic efficacy against Oesphagostomum columbianum at 0.1 mg/kg; range is 91-100%; format: functional
Ovis aries [2] = assay: Tested for the anthelmintic efficacy against Ostertagia circumcincta at 0.1 mg/kg; range is 76-90%; format: functional
Ovis aries [3] = assay: Tested for the anthelmintic efficacy against Cooperia curticei at 0.1 mg/kg; range is 91-100%; format: functional
Ovis aries [4] = assay: Tested for the anthelmintic efficacy against Trichostrongylus axei at 0.1 mg/kg; range is 91-100%; format: functional
Ovis aries [5] = assay: Tested for the anthelmintic efficacy against Trichostrongylus colubriformis at 0.1 mg/kg; range is 76-90%; format: functional
Ovis aries [6] = assay: Tested for anthelmintic efficacy against Haemonchus contortus at 0.1 mg/kg; range is 91-100%; format: functional
Tetranychus urticae = assay: Tested for acaricidal efficacy using a Tetranychus urticae (two-spotted spider mite, TSSM) contact assay; format: functional; set-up: concentration or dose not given beside the values
[7] = tested on: Trichostrongylus colubriformis; assay: Tested in vivo for the biological efficacy using Trichostrongylus colubriformis gerbil assay; format: functional
Ovis aries [8] = assay: Tested for the anthelmintic efficacy against Cooperia curticei at 0.15 mg/kg; range is 91-100%; format: functional
Ovis aries [9] = assay: Tested for the anthelmintic efficacy against Oesphagostomum columbianum at 0.15 mg/kg; format: functional
Ovis aries [10] = assay: Tested for the anthelmintic efficacy against Ostertagia circumcincta at 0.15 mg/kg; range is 76-90%; format: functional
Ovis aries [11] = assay: Tested for the anthelmintic efficacy against Trichostrongylus axei at 0.15 mg/kg; range is 91-100%; format: functional
Ovis aries [12] = assay: Tested for the anthelmintic efficacy against Trichostrongylus colubriformis at 0.15 mg/kg; range is 91-100%; format: functional
Ovis aries [13] = assay: Tested for anthelmintic efficacy against Haemonchus contortus at 0.15 mg/kg; range is 76-90%; format: functional
Ovis aries [14] = assay: Tested for the anthelmintic efficacy against Cooperia curticei at 0.1 mg/kg; range is 51-75%; format: functional
Ovis aries [15] = assay: Tested for the anthelmintic efficacy against Ostertagia circumcincta at 0.1 mg/kg; range is 91-100%; format: functional
Ovis aries [16] = assay: Tested for the anthelmintic efficacy against Ostertagia circumcincta at 0.1 mg/kg; format: functional
Ovis aries [17] = assay: Tested for the anthelmintic efficacy against Cooperia curticei at 0.1 mg/kg; format: functional
Ovis aries [18] = assay: Tested for the anthelmintic efficacy against Trichostrongylus axei at 0.1 mg/kg; range is 51-75%; format: functional
Ovis aries [19] = assay: Tested for the anthelmintic efficacy against Ostertagia circumcincta at 0.1 mg/kg; range is 51-75%; format: functional
Ovis aries [20] = assay: Tested for the anthelmintic efficacy against Cooperia curticei at 0.1 mg/kg; range is 76-90%; format: functional
Ovis aries [21] = assay: Tested for the anthelmintic efficacy against Trichostrongylus axei at 0.1 mg/kg; range is 76-90%; format: functional
Ovis aries [22] = assay: Tested for the anthelmintic efficacy against Trichostrongylus colubriformis at 0.1 mg/kg; range is 51-75%; format: functional

SMILES | IC100 (Artemia salina) [ng/mL] | IC50 (Caenorhabditis elegans) [ng/mL] | Reduction (Ovis aries [1]) [%] | Reduction (Ovis aries [4]) [%] | Reduction (Ovis aries [5]) [%] | Reduction (Ovis aries [6]) [%] | Mortality (Tetranychus urticae) [%] | ED85 [7] [mg/kg] | further results
CCC(C)[C@H]1O[C@]2(C=C[C@@H]1C)C[C@@H]1C[C@@H](C/C=C(\C)[C@@H](O[C@H]3C[C@H](OC)[C@@H](O[C@H]4C[C@H](OC)[C@H](SC)[C@H](C)O4)[C@H](C)O3)[C@@H](C)/C=C/C=C3\CO[C@@H]4[C@H](O)C(C)=C[C@@H](C(=O)O1)[C@]34O)O2 (some centres undefined) | 1730 | 0.06 (≈ 0.0664 nM) | 91 | 91 | 76 | 91 | 92 | 0.063 | Reduction (Ovis aries [2]): 76%; Reduction (Ovis aries [3]): 91%
CCC(C)[C@H]1O[C@]2(C=C[C@@H]1C)C[C@@H]1C[C@@H](C/C=C(\C)[C@@H](O[C@H]3C[C@H](OC)[C@H](S(=O)(=O)CCO)[C@H](C)O3)[C@@H](C)/C=C/C=C3\CO[C@@H]4[C@H](O)C(C)=C[C@@H](C(=O)O1)[C@]34O)O2 (some centres undefined) | 870 | – | – | – | – | – | 94 | > 0.25 | Reduction (Ovis aries [8]): 91%; Reduction (Ovis aries [9]): <50%; Reduction (Ovis aries [10]): 76%; Reduction (Ovis aries [11]): 91%; Reduction (Ovis aries [12]): 91%; Reduction (Ovis aries [13]): 76%
CCC(C)[C@H]1O[C@]2(C=C[C@@H]1C)C[C@@H]1C[C@@H](C/C=C(\C)[C@@H](O[C@H]3C[C@H](OC)[C@@H](O[C@H]4C[C@H](OC)[C@H](S(=O)(=O)CCO)[C@H](C)O4)[C@H](C)O3)[C@@H](C)/C=C/C=C3\CO[C@@H]4[C@H](O)C(C)=C[C@@H](C(=O)O1)[C@]34O)O2 (some centres undefined) | 870 | 0.363 (≈ 0.376 nM) | 91 | 91 | 76 | 91 | 34 | 0.063 | Reduction (Ovis aries [14]): 51%; Reduction (Ovis aries [15]): 91%
CCC(C)[C@H]1O[C@]2(C=C[C@@H]1C)C[C@@H]1C[C@@H](C/C=C(\C)[C@@H](O[C@H]3C[C@H](OC)[C@@H](O[C@H]4C[C@H](OC)[C@@H](SCCO)[C@H](C)O4)[C@H](C)O3)[C@@H](C)/C=C/C=C3\CO[C@@H]4[C@H](O)C(C)=C[C@@H](C(=O)O1)[C@]34O)O2 (some centres undefined) | 870 | 0.091 (≈ 0.0975 nM) | 91 | – | 76 | 91 | 70 | 0.063 | Reduction (Ovis aries [16]): <50%; Reduction (Ovis aries [17]): <50%; Reduction (Ovis aries [18]): 51%
CCC(C)[C@H]1O[C@]2(C=C[C@@H]1C)C[C@@H]1C[C@@H](C/C=C(\C)[C@@H](O[C@H]3C[C@H](OC)[C@@H](O[C@H]4C[C@H](OC)[C@@H](SC)[C@H](C)O4)[C@H](C)O3)[C@@H](C)/C=C/C=C3\CO[C@@H]4[C@H](O)C(C)=C[C@@H](C(=O)O1)[C@]34O)O2 (some centres undefined) | 3470 | 0.226 (≈ 0.25 nM) | 91 | – | – | 91 | 98 | 0.25 | Reduction (Ovis aries [19]): 51%; Reduction (Ovis aries [20]): 76%; Reduction (Ovis aries [21]): 76%; Reduction (Ovis aries [22]): 51%
